These results are taken from US8377884B2, “Variants of C-type natriuretic peptides” (Biomarin Pharmaceutical Inc., priority 2007, dated 2013).

Where two headings read alike, the source gives them in different places. Bridge positions count the residues as written; N and C are the ends. Square brackets hold non-standard residues; d marks the D form. Peptide text beside a SMILES is read from it. * marks the point of attachment. CH3O(CH2CH2O)11CH2CH2CO = COCCOCCOCCOCCOCCOCCOCCOCCOCCOCCOCCOCCC(=O)*; Tle = CC(C)(C)[C@H](N)C(=O)O

Series [1] addresses neutral endopeptidase (NEP) (Homo sapiens, UniProt P08473). Nature of the series: In vitro neutral endopeptidase (NEP) cleavage assay. The following applies: human, pH 7. The method, boiled down: (§1)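 Recombinant human NEP (1 ug/mL final) incubated with 100 uM CNP variant in 0.1 M Tris, pH 7, at 37° C for various times, then quenched with EDTA (10 mM final) and heat. Samples reduced and analysed by HPLC and mass spectrometry. Half-life derived from loss of intact variant over time.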

Another series addresses Recombinant human NEP (Homo sapiens, UniProt P08473). The description is as above. The method, boiled down: as §1
Another series has as its target T1, NPR-B (Mus musculus, UniProt Q6VVW5).
T1 construct: Murine NIH3T3 cells express endogenously the CNP signaling receptor, NPR-B; endogenous in cells; host or cells: NIH3T3 (murine fibroblasts)
T1 sequence (Q6VVW5 17-1047): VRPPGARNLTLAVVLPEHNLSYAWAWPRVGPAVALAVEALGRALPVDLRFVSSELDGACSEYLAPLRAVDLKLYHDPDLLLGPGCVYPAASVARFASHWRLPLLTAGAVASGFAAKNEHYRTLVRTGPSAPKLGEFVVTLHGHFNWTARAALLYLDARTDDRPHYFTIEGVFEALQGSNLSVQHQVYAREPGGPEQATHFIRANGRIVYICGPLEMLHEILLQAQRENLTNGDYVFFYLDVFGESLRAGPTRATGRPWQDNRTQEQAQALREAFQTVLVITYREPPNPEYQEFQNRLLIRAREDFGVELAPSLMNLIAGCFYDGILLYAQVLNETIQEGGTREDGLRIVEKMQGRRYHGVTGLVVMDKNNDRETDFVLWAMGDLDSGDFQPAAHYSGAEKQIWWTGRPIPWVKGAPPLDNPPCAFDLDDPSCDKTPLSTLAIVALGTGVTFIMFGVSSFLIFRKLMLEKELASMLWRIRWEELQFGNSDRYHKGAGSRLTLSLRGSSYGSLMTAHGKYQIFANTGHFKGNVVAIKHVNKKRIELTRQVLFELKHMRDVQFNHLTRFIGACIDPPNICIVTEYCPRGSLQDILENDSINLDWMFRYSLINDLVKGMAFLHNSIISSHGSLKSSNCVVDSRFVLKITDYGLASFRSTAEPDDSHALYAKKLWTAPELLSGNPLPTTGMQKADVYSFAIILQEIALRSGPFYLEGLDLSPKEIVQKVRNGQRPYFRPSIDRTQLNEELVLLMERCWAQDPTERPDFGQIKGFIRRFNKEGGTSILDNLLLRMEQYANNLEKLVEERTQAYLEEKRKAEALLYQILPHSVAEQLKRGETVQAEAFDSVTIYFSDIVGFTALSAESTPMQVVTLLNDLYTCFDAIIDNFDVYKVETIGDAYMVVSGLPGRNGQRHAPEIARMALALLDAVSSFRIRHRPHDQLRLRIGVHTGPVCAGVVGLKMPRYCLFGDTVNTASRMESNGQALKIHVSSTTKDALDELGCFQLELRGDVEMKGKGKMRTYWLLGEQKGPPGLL
Nature of the series: Stimulation of cGMP production in NIH3T3 cells. The series is classed as cell-based, Murine. The settings on record: for cGMP response relative to 1 uM CNP22 (%) at 0.01 µM: read-out: cGMP Response rel. to 1 uM CNP22, 10 nM; for cGMP response relative to 1 uM CNP22 (%) at 1 µM: read-out: cGMP Response rel. to 1 uM CNP22, 1 uM.

The mark [2] stands for this setting: in vitro NEP cleavage assay, assay period 160 minutes.
Setting [3] is: NIH3T3 cells, 10 nM natriuretic peptide, normalized to cell number and cGMP production with 1 uM wtCNP22.
Where [4] appears, read: NIH3T3 cells, 1 uM natriuretic peptide, normalized to cell number and cGMP production with 1 uM wtCNP22.

Chain of neutral endopeptidase (NEP) (P08473 whole entry): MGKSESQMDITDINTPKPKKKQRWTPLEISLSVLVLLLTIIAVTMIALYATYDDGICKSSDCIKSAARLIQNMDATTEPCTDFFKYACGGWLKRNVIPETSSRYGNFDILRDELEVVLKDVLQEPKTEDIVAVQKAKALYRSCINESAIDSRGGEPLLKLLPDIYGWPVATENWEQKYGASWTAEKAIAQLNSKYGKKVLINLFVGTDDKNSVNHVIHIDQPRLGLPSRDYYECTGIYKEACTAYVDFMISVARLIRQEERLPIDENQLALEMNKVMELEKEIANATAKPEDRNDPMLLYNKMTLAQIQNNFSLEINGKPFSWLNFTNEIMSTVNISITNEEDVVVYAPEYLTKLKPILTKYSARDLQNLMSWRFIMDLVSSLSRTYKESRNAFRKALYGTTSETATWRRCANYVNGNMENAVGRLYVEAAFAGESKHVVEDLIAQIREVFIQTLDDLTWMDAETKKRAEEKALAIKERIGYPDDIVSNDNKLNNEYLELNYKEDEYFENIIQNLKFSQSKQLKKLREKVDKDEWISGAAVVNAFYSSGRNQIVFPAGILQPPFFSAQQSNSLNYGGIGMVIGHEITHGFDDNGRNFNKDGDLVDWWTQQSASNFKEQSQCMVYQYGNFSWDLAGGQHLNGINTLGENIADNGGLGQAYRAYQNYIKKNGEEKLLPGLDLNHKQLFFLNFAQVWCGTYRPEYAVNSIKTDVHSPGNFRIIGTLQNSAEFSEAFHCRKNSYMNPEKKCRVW
Chain of Recombinant human NEP (P08473 whole entry): as above

`CC[C@@H](C)[C@H]1NC(=O)[C@@H](CCCNC(=N)N)NC(=O)[C@@H](CC(=O)O)NC(=O)[C@@H](CC(C)C)NC(=O)[C@@H](CCCCN)NC(=O)[C@@H](CC(C)C)NC(=O)CNC(=O)[C@@H](Cc2ccccc2)NC(=O)[C@H](NC(=O)CNC(=O)[C@@H](CCCCN)NC(=O)[C@@H](CO)NC(=O)[C@@H](CC(C)C)NC(=O)CN)CSSC[C@H](C(=O)O)NC(=O)CNC(=O)[C@@H](CC(C)C)NC(=O)CNC(=O)[C@@H](CO)NC(=O)[C@@H](CCSC)NC(=O)[C@@H](CO)NC(=O)CNC1=O` [N] registered a half-life at 100 uM in series [1] of more than 2.67 h. Besides, the “resistance to NEP cleavage/degradation (in words)” value on Recombinant human NEP (setting [2]) is “greatest resistance to NEP cleavage”. Further, on NPR-B (NIH3T3, […]), the cGMP response relative to 1 uM CNP22 (%) at 0.01 µM was determined as 2% and the cGMP response relative to 1 uM CNP22 (%) at 1 µM was 1%.

Compound `CC[C@H](C)[C@@H]1NC(=O)[C@H](CCCNC(=N)N)NC(=O)[C@H](CC(=O)O)NC(=O)[C@H](CC(C)C)NC(=O)[C@H](CCCCN)NC(=O)[C@H](CC(C)C)NC(=O)CNC(=O)[C@H](Cc2ccccc2)NC(=O)[C@@H](NC(=O)CNC(=O)[C@H](CCCNC(=N)N)NC(=O)[C@H](CO)NC(=O)[C@H](CC(C)C)NC(=O)CNC(=O)[C@H](CCCNC(=N)N)NC(=O)CCOCCOCCOCCOCCOCCOCCOCCOCCOCCOCCOCCOC)CSSC[C@@H](C(=O)O)NC(=O)CNC(=O)[C@H](CC(C)C)NC(=O)CNC(=O)[C@H](CO)NC(=O)[C@H](CCSC)NC(=O)[C@H](CO)NC(=O)CNC1=O` [PEO12-R-CNP22, K4R] ({CH3O(CH2CH2O)11CH2CH2CO}-RGLSRGCFGLKLDRIGSMSGLGC-OH; disulfide 7-23) registered a half-life at 100 uM in series [1] not below 2.67 h. In addition, the “resistance to NEP cleavage/degradation (in words)” value with Recombinant human NEP is reported as “much more resistant to NEP degradation than CNP22”. Also, the cGMP response relative to 1 uM CNP22 (%) at 0.01 µM on NPR-B (setting [3]) stood at 23 ± 2%. The cGMP response relative to 1 uM CNP22 (%) at 1 µM at NPR-B (setting [4]) turned out to be 93 ± 19%.

Compound `CC[C@H](C)[C@@H]1NC(=O)[C@H](CCCNC(=N)N)NC(=O)[C@H](CC(=O)O)NC(=O)[C@H](CC(C)C)NC(=O)[C@H](CCCCN)NC(=O)[C@H](CC(C)C)NC(=O)CNC(=O)[C@H](Cc2ccccc2)NC(=O)[C@@H](NC(=O)CNC(=O)[C@H](CCCNC(=N)N)NC(=O)[C@H](CO)NC(=O)[C@H](CC(C)C)NC(=O)CNC(=O)[C@H](CCC(N)=O)NC(=O)[C@H](CCC(N)=O)NC(=O)[C@H](CC(N)=O)NC(=O)[C@H](C)NC(=O)CNC(=O)[C@@H](NC(=O)[C@H](CO)NC(=O)[C@@H](NC(=O)[C@H](CO)NC(=O)[C@@H](NC(=O)[C@H](CCC(N)=O)NC(=O)[C@@H]2CCCN2C(=O)[C@@H](NC(=O)CN)C(C)C)C(C)C)[C@@H](C)O)[C@@H](C)O)CSSC[C@@H](C(=O)O)NC(=O)CNC(=O)[C@H](CC(C)C)NC(=O)CNC(=O)[C@H](CO)NC(=O)[C@H](CCSC)NC(=O)[C@H](CO)NC(=O)CNC1=O` [CL] (H-GVPQVSTSTGANQQGLSRGCFGLKLDRIGSMSGLGC-OH; disulfide 20-36 (inferred); N-terminus and C-terminus assumed) displayed a half-life at 100 uM in series [1] of more than 2.67 h. Also, on Recombinant human NEP, the “resistance to NEP cleavage/degradation (in words)” value is given as “most resistant to NEP degradation”. Also, at NPR-B (setting [3]), the cGMP response relative to 1 uM CNP22 (%) at 0.01 µM stood at 3%. Besides, the cGMP response relative to 1 uM CNP22 (%) at 1 µM at NPR-B (setting [4]) was found to be 35%.

As for `CC[C@H](C)[C@@H]1NC(=O)[C@H](CCCNC(=N)N)NC(=O)[C@H](CC(=O)O)NC(=O)[C@H](CC(C)C)N(C)C(=O)[C@H](CCCCN)NC(=O)[C@H](CC(C)C)N(C)C(=O)CNC(=O)[C@H](Cc2ccccc2)NC(=O)[C@@H](NC(=O)CNC(=O)[C@H](CCCCN)NC(=O)[C@H](CO)NC(=O)[C@H](CC(C)C)NC(=O)CN)CSSC[C@@H](C(=O)O)NC(=O)CNC(=O)[C@H](CC(C)C)NC(=O)CNC(=O)[C@H](CO)NC(=O)[C@H](CCSC)NC(=O)[C@H](CO)NC(=O)CNC1=O` [M], the half-life at 100 uM in series [1] was more than 2.67 h. Moreover, the “resistance to NEP cleavage/degradation (in words)” value at Recombinant human NEP (setting [2]) is recorded as “greatest resistance to NEP cleavage”. In addition, on NPR-B (NIH3T3, […]), the cGMP response relative to 1 uM CNP22 (%) at 0.01 µM turned out to be 1% and the cGMP response relative to 1 uM CNP22 (%) at 1 µM came out at 11%.

`CC[C@H](C)[C@@H]1NC(=O)[C@H](CCCNC(=N)N)NC(=O)[C@H](CC(=O)O)NC(=O)[C@H](CC(C)C)NC(=O)[C@H](CCCCN)NC(=O)[C@H](CC(C)C)NC(=O)CNC(=O)[C@H](Cc2ccccc2)NC(=O)[C@@H](NC(=O)CNC(=O)[C@H](CCCNC(=N)N)NC(=O)[C@H](CO)NC(=O)[C@H](CC(C)C)NC(=O)CN)CSSC[C@@H](C(=O)O)NC(=O)CNC(=O)[C@H](CC(C)C)NC(=O)CNC(=O)[C@H](CO)NC(=O)[C@H](CCSC)NC(=O)[C@H](CO)NC(=O)[C@H](CO)NC1=O` [BK] (H-GLSRGCFGLKLDRISSMSGLGC-OH; disulfide 6-22 (inferred); N-terminus and C-terminus assumed) had a half-life at 100 uM in series [1] not below 2.67 h. Moreover, on Recombinant human NEP (setting [2]), the “resistance to NEP cleavage/degradation (in words)” value is recorded as “greatest resistance to NEP cleavage”. Besides, at NPR-B (NIH3T3, […]), the cGMP response relative to 1 uM CNP22 (%) at 0.01 µM stood at 13 ± 1% and the cGMP response relative to 1 uM CNP22 (%) at 1 µM came to 71 ± 11%.

Take `CC[C@H](C)[C@@H]1NC(=O)[C@H](CCCNC(=N)N)NC(=O)[C@H](CC(=O)O)NC(=O)[C@H](CC(C)C)NC(=O)[C@H](CCCCN)NC(=O)[C@H](CC(C)C)NC(=O)CNC(=O)[C@H](Cc2cccc(Cl)c2)NC(=O)[C@@H](NC(=O)CNC(=O)[C@H](CCCCN)NC(=O)[C@H](CO)NC(=O)[C@H](CC(C)C)NC(=O)CN)CSSC[C@@H](C(=O)O)NC(=O)CNC(=O)[C@H](CC(C)C)NC(=O)CNC(=O)[C@H](CO)NC(=O)[C@H](CCSC)NC(=O)[C@H](CO)NC(=O)CNC1=O` [G]: the half-life at 100 uM in series [1] turned out to be 2.25 h. Moreover, the “half-life in comparison to wtCNP22” value on Recombinant human NEP (NEP at 1 ug/ml) is reported as “about 1.5 times”. For the same compound, the “resistance to cleavage at the Cys6-Phe7 bond relative to wtCNP22” value at Recombinant human NEP (data not shown) is “resistance or improved resistance”. The “resistance to cleavage of the Gly8-Leu9 bond” value on Recombinant human NEP (in the presence of 1 ug/mL NEP, data not shown) is “exhibited resistance”. Also, at NPR-B (NIH3T3, […]), the cGMP response relative to 1 uM CNP22 (%) at 0.01 µM was 17% and the cGMP response relative to 1 uM CNP22 (%) at 1 µM was determined as 93%.

As to `CC[C@H](C)[C@@H]1NC(=O)[C@H](CCCNC(=N)N)NC(=O)[C@H](CC(=O)O)NC(=O)[C@H](CC(C)C)NC(=O)[C@H](CCCCN)NC(=O)[C@H](CC(C)C)NC(=O)[C@H](C(C)(C)C)NC(=O)[C@H](Cc2ccccc2)NC(=O)[C@@H](NC(=O)CNC(=O)[C@H](CCCCN)NC(=O)[C@H](CO)NC(=O)[C@H](CC(C)C)NC(=O)CN)CSSC[C@@H](C(=O)O)NC(=O)CNC(=O)[C@H](CC(C)C)NC(=O)CNC(=O)[C@H](CO)NC(=O)[C@H](CCSC)NC(=O)[C@H](CO)NC(=O)CNC1=O` [F] (H-GLSKGCF[Tle]LKLDRIGSMSGLGC-OH; disulfide 6-22 (inferred); N-terminus and C-terminus assumed), the half-life at 100 uM in series [1] (recombinant human neutral endopeptidase (NEP)) was found to be 1.33 h. In addition, the “resistance to cleavage at the Cys6-Phe7 bond relative to wtCNP22” value on Recombinant human NEP is on record as “resistance or improved resistance”. On NPR-B (setting [3]), the cGMP response relative to 1 uM CNP22 (%) at 0.01 µM was determined as 2%. Moreover, at NPR-B (setting [4]), the cGMP response relative to 1 uM CNP22 (%) at 1 µM was 18%.
